As a reminder, the IC50 is the point on the concentration scale where inhibition reaches its midpoint. One may read the inhibition as the change of the read-out against control, counted positive when it falls. The low end stands for a weak effect, the high end for a strong effect.

One test concerns MCF7 cells. The test can be described thus: Anti-proliferation (viability) of MCF7 cells (Table 7, FIG. 2B). The note with it: Homo sapiens, MCF7, MCF7 cells, 3-6 days, 10-point serial dilution; read-out: GI IC50 in MCF-7. Type of test: cell-based.
For the next test, the target named is CDK4 (Homo sapiens, UniProt P11802+Q16531). The test can be described thus: CDK4 percentage degradation in Calu-1 cells (Table 6). It counts as cell-based. The note with it: 16 hours; for inhibition at 0.04 µM: 40 nM; for inhibition at 0.2 µM: 200 nM. Set-up: Cells that express cyclin D1-3 and CDK4/6 proteins were treated with heterobifunctional compounds; endogenous in cells; host or cells: Calu-1. Put shortly: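 Calu-1 cells exposed to heterobifunctional compounds at 40 nM or 200 nM for 16 h. Cyclin D1 and CDK4 levels measured by Western blot of RIPA lysates (BCA-normalised loading), bands quantified by densitometry and expressed as percentage degradation.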
Sequence of CDK4 (P11802 2-303 limits assumed): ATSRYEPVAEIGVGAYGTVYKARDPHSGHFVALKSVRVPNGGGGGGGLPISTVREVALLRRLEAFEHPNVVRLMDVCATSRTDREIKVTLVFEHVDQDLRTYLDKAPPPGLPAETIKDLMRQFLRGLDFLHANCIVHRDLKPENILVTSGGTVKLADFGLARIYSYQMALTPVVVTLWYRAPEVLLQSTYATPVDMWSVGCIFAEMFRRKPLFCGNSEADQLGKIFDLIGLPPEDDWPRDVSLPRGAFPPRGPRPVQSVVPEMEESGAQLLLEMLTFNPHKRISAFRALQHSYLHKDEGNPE
Sequence of CDK4 (P24385 whole entry partner): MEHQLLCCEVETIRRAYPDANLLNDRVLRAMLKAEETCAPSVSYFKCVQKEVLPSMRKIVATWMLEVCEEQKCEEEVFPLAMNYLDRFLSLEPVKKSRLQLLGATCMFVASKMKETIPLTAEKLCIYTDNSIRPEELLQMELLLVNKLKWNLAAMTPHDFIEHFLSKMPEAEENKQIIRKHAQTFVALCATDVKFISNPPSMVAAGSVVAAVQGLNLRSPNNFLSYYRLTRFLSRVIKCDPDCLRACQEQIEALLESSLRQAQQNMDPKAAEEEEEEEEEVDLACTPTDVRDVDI
Sequence of CDK4 (Q16531 2-1140 limits assumed): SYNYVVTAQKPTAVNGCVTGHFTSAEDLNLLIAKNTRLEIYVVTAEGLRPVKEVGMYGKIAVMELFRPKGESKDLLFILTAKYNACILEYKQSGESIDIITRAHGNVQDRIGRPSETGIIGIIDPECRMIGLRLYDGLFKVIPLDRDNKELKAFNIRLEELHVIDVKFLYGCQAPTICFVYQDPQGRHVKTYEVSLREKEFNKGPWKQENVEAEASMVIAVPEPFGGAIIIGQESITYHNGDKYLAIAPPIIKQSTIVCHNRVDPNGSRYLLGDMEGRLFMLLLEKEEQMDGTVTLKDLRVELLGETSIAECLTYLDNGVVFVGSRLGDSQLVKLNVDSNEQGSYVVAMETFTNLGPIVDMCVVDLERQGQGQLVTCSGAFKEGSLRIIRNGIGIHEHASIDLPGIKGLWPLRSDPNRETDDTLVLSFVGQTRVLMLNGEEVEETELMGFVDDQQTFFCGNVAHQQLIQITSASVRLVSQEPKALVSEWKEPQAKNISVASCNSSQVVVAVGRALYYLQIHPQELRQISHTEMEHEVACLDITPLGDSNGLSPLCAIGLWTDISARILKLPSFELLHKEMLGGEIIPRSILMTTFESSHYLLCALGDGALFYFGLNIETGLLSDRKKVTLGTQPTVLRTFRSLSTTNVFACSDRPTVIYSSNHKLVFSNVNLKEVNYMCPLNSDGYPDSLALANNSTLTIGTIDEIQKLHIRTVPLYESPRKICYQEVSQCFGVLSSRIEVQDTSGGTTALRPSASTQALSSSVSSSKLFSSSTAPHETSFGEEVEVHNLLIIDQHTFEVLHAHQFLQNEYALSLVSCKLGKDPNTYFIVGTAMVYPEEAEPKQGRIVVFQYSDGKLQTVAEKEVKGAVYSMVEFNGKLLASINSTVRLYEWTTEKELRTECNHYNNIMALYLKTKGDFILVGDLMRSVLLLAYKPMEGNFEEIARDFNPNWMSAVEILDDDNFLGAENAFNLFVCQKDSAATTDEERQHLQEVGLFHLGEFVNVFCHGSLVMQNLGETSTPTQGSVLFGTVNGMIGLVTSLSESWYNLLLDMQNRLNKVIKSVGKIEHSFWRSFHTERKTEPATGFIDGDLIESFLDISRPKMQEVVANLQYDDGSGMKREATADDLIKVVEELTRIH

SMILES strings stand for the structures. Where only a bound is given, the exact number is not on record here.

On to `CC(=O)c1c(C)c2cnc(Nc3ccc(N4CCN(CC(=O)NCCCCCNc5nc6[nH]ccc6cc5C(=O)Nc5ccc(N(C)C)nn5)CC4)cn3)nc2n(C2CCCC2)c1=O` [CPD-251, 6-((5-(2-(4-(6-((6-acetyl-8-cyclopentyl-5-methyl-7-oxo-7,8-dihydropyrido[2,3-d]pyrimidin-2-yl)amino)pyridin-3-yl)piperazin-1-yl)acetamido)pentyl)amino)-N-(6-(dimethylamino)pyridazin-3-yl)-1H-pyrrolo[2,3-b]pyridine-5-carboxamide], for which, in the test on MCF7 cells, the IC50 was greater than 100 nM.
Take `CC(=O)c1c(C)c2cnc(Nc3ccc(N4CCN(CC(=O)NCCC5CC(Nc6cc(Cl)ccc6C(=O)Nc6ccc(C)c(C7CC7)n6)C5)CC4)cn3)nc2n(C2CCCC2)c1=O` (stereo not shown) [CPD-255, 2-((3-(2-(2-(4-(6-((6-Acetyl-8-cyclopentyl-5-methyl-7-oxo-7,8-dihydropyrido[2,3-d]pyrimidin-2-yl)amino)pyridin-3-yl)piperazin-1-yl)acetamido)ethyl)cyclobutyl)amino)-4-chloro-N-(6-cyclopropyl-5-methylpyridin-2-yl)benzamide]: on CDK4, the inhibition at 0.04 µM was less than 30% and the inhibition at 0.2 µM is 50 to 80%.
In the same order, the values of `CC(=O)c1c(C)c2cnc(Nc3ccc(N4CCN(C(=O)NCCC5CC(Nc6cc(Cl)ccc6C(=O)Nc6ccc(C)c(C7CC7)n6)C5)CC4)cn3)nc2n(C2CCCC2)c1=O` (stereo not shown) [CPD-256, 4-(6-((6-Acetyl-8-cyclopentyl-5-methyl-7-oxo-7,8-dihydropyrido[2,3-d]pyrimidin-2-yl)amino)pyridin-3-yl)-N-(2-(3-((5-chloro-2-((6-cyclopropyl-5-methylpyridin-2-yl)carbamoyl)phenyl)amino)cyclobutyl)ethyl)piperazine-1-carboxamide] are less than 30% and less than 30%.
On CDK4, `CC(=O)c1c(C)c2cnc(Nc3ccc(N4CCN(CC(=O)NCCC5CC(Nc6cc(Cl)ccc6C(=O)Nc6ccc(N(C)C)nn6)C5)CC4)cn3)nc2n(C2CCCC2)c1=O` (stereo not shown) [CPD-257, 2-((3-(2-(2-(4-(6-((6-Acetyl-8-cyclopentyl-5-methyl-7-oxo-7,8-dihydropyrido[2,3-d]pyrimidin-2-yl)amino)pyridin-3-yl)piperazin-1-yl)acetamido)ethyl)cyclobutyl)amino)-4-chloro-N-(6-(dimethylamino)pyridazin-3-yl)benzamide] gave an inhibition at 0.04 µM of less than 30% and an inhibition at 0.2 µM of 30 to 50%.
At CDK4, `CC(=O)c1c(C)c2cnc(Nc3ccc(N4CCN(CC(=O)NCCC5CC(Nc6cc(F)ccc6C(=O)Nc6ccc(N(C)C)nn6)C5)CC4)cn3)nc2n(C2CCCC2)c1=O` (stereo not shown) [CPD-258, 2-((3-(2-(2-(4-(6-((6-Acetyl-8-cyclopentyl-5-methyl-7-oxo-7,8-dihydropyrido[2,3-d]pyrimidin-2-yl)amino)pyridin-3-yl)piperazin-1-yl)acetamido)ethyl)cyclobutyl)amino)-N-(6-(dimethylamino)pyridazin-3-yl)-4-fluorobenzamide] showed an inhibition at 0.04 µM of 30 to 50% and an inhibition at 0.2 µM of 50 to 80%.
For `CC(=O)c1c(C)c2cnc(Nc3ccc(N4CCN(CC(=O)NC5CC6(C5)CC(Nc5cc(Cl)ccc5C(=O)Nc5cc(C)on5)C6)CC4)cn3)nc2n(C2CCCC2)c1=O` (stereo not shown) [CPD-259, 2-((6-(2-(4-(6-((6-acetyl-8-cyclopentyl-5-methyl-7-oxo-7,8-dihydropyrido[2,3-d]pyrimidin-2-yl)amino)pyridin-3-yl)piperazin-1-yl)acetamido)spiro[3.3]heptan-2-yl)amino)-4-chloro-N-(5-methylisoxazol-3-yl)benzamide], on CDK4, the inhibition at 0.04 µM is less than 30% and the inhibition at 0.2 µM was in the range of 30 to 50%.
As to `CC(=O)c1c(C)c2cnc(Nc3ccc(N4CCN(CC(=O)NC5CC6(C5)CC(Nc5cc(F)ccc5C(=O)Nc5cc(C)on5)C6)CC4)cn3)nc2n(C2CCCC2)c1=O` (stereo not shown) [CPD-260, 2-((6-(2-(4-(6-((6-acetyl-8-cyclopentyl-5-methyl-7-oxo-7,8-dihydropyrido[2,3-d]pyrimidin-2-yl)amino)pyridin-3-yl)piperazin-1-yl)acetamido)spiro[3.3]heptan-2-yl)amino)-4-fluoro-N-(5-methylisoxazol-3-yl)benzamide], in the test with MCF7 cells, the IC50 is greater than 100 nM.
Same read-out and setting: with `CC(=O)c1c(C)c2cnc(Nc3ccc(N4CCN(CC(=O)NCC5CC(Nc6cc(C(F)(F)F)ccc6C(=O)Nc6cc(C)n(C)n6)C5)CC4)cn3)nc2n(C2CCCC2)c1=O` (stereo not shown) [CPD-261, 2-((3-((2-(4-(6-((6-acetyl-8-cyclopentyl-5-methyl-7-oxo-7,8-dihydropyrido[2,3-d]pyrimidin-2-yl)amino)pyridin-3-yl)piperazin-1-yl)acetamido)methyl)cyclobutyl)amino)-N-(1,5-dimethyl-1H-pyrazol-3-yl)-4-(trifluoromethyl)benzamide] the figure was greater than 100 nM; with `CC(=O)c1c(C)c2cnc(Nc3ccc(N4CCN(CC(=O)NCC5CC(Nc6ccc(C(F)(F)F)cc6C(=O)Nc6cc(C)n(C)n6)C5)CC4)cn3)nc2n(C2CCCC2)c1=O` (stereo not shown) [CPD-262, 2-((3-((2-(4-(6-((6-acetyl-8-cyclopentyl-5-methyl-7-oxo-7,8-dihydropyrido[2,3-d]pyrimidin-2-yl)amino)pyridin-3-yl)piperazin-1-yl)acetamido)methyl)cyclobutyl)amino)-N-(1,5-dimethyl-1H-pyrazol-3-yl)-5-(trifluoromethyl)benzamide], greater than 100 nM.
Same read-out and setting: the figure for `CC(=O)c1c(C)c2cnc(Nc3ccc(N4CCN(CC(=O)NCC5CC(Nc6ccc(F)cc6C(=O)Nc6cc(C)n(C)n6)C5)CC4)cn3)nc2n(C2CCCC2)c1=O` (stereo not shown) [CPD-263, 2-((3-((2-(4-(6-((6-acetyl-8-cyclopentyl-5-methyl-7-oxo-7,8-dihydropyrido[2,3-d]pyrimidin-2-yl)amino)pyridin-3-yl)piperazin-1-yl)acetamido)methyl)cyclobutyl)amino)-N-(1,5-dimethyl-1H-pyrazol-3-yl)-5-fluorobenzamide] is greater than 100 nM; for `CC(=O)c1c(C)c2cnc(Nc3ccc(N4CCN(CC(=O)NCC5CC(Nc6cc(F)ccc6C(=O)Nc6cc(C)n(C)n6)C5)CC4)cn3)nc2n(C2CCCC2)c1=O` (stereo not shown) [CPD-264, 2-((3-((2-(4-(6-((6-acetyl-8-cyclopentyl-5-methyl-7-oxo-7,8-dihydropyrido[2,3-d]pyrimidin-2-yl)amino)pyridin-3-yl)piperazin-1-yl)acetamido)methyl)cyclobutyl)amino)-N-(1,5-dimethyl-1H-pyrazol-3-yl)-4-fluorobenzamide] it is greater than 100 nM.
The same measure, in the same setting: the figure for `CNc1ccc(C(=O)Nc2ccc(N(C)C)nn2)c(NC2CC3(C2)CN(C(=O)CCN2CCN(c4ccc(Nc5ncc6c(C)c(C(C)=O)c(=O)n(C7CCCC7)c6n5)nc4)CC2(C)C)C3)n1` [CPD-267, 2-((2-(3-(4-(6-((6-acetyl-8-cyclopentyl-5-methyl-7-oxo-7,8-dihydropyrido[2,3-d]pyrimidin-2-yl)amino)pyridin-3-yl)-2,2-dimethylpiperazin-1-yl)propanoyl)-2-azaspiro[3.3]heptan-6-yl)amino)-N-(6-(dimethylamino)pyridazin-3-yl)-6-(methylamino)nicotinamide] is less than 50 nM.
In the case of `CNc1ccc(C(=O)Nc2ccc(N(C)C)nn2)c(NC2CC3(C2)CN(C(=O)CN2CCN(Cc4ccc(Nc5ncc6c(C)c(C(C)=O)c(=O)n(C7CCCC7)c6n5)nc4)CC2)C3)n1` [CPD-268, 2-((2-(2-(4-((6-((6-acetyl-8-cyclopentyl-5-methyl-7-oxo-7,8-dihydropyrido[2,3-d]pyrimidin-2-yl)amino)pyridin-3-yl)methyl)piperazin-1-yl)acetyl)-2-azaspiro[3.3]heptan-6-yl)amino)-N-(6-(dimethylamino)pyridazin-3-yl)-6-(methylamino)nicotinamide], the IC50 in the test on MCF7 cells was less than 50 nM.
Still for that read-out and setting: the figure for `CNc1ccc(C(=O)Nc2ccc(N(C)C)nn2)c(NC2CN(C(=O)CN3CCN(Cc4ccc(Nc5ncc6c(C)c(C(C)=O)c(=O)n(C7CCCC7)c6n5)nc4)CC3)C2)n1` [CPD-269, 2-((1-(2-(4-((6-((6-acetyl-8-cyclopentyl-5-methyl-7-oxo-7,8-dihydropyrido[2,3-d]pyrimidin-2-yl)amino)pyridin-3-yl)methyl)piperazin-1-yl)acetyl)azetidin-3-yl)amino)-N-(6-(dimethylamino)pyridazin-3-yl)-6-(methylamino)nicotinamide] is greater than 100 nM.
Still for that read-out and setting: the figure for `CC(=O)c1c(C)c2cnc(Nc3ccc(N4CCN(CC(=O)N5CCC(Nc6nc(NC(C)C)ccc6C(=O)Nc6cc(C)on6)CC5)CC4)cn3)nc2n(C2CCCC2)c1=O` [CPD-290, 2-((1-(2-(4-(6-((6-acetyl-8-cyclopentyl-5-methyl-7-oxo-7,8-dihydropyrido[2,3-d]pyrimidin-2-yl)amino)pyridin-3-yl)piperazin-1-yl)acetyl)piperidin-4-yl)amino)-6-(isopropylamino)-N-(5-methylisoxazol-3-yl)nicotinamide] is greater than 100 nM; for `CC(=O)c1c(C)c2cnc(Nc3ccc(N4CCN(CC(=O)NC5CC6(C5)CC(Nc5nc(N(C)C)ccc5C(=O)Nc5cn(C)c(C7CC7)n5)C6)CC4)cn3)nc2n(C2CCCC2)c1=O` (stereo not shown) [CPD-291, 2-((6-(2-(4-(6-((6-acetyl-8-cyclopentyl-5-methyl-7-oxo-7,8-dihydropyrido[2,3-d]pyrimidin-2-yl)amino)pyridin-3-yl)piperazin-1-yl)acetamido)spiro[3.3]heptan-2-yl)amino)-N-(2-cyclopropyl-1-methyl-1H-imidazol-4-yl)-6-(dimethylamino)nicotinamide] it is greater than 100 nM; for `CC(=O)c1c(C)c2cnc(Nc3ccc(N4CCN(CC(=O)NC5CC6(C5)CC(Nc5nc(OC(C)C)ccc5C(=O)Nc5cn(C)c(C7CC7)n5)C6)CC4)cn3)nc2n(C2CCCC2)c1=O` (stereo not shown) [CPD-292, 2-((6-(2-(4-(6-((6-acetyl-8-cyclopentyl-5-methyl-7-oxo-7,8-dihydropyrido[2,3-d]pyrimidin-2-yl)amino)pyridin-3-yl)piperazin-1-yl)acetamido)spiro[3.3]heptan-2-yl)amino)-N-(2-cyclopropyl-1-methyl-1H-imidazol-4-yl)-6-isopropoxynicotinamide] it is greater than 100 nM.

Values taken from patent publication US20260297081A1, “COMPOUNDS AND METHODS OF TREATING CANCERS” (Cullgen Inc., priority 2023, published 2026).
